# Measured values as given in PubChem BioAssay AID2060895 (Molecular Pharmacology Branch, DTP, NCI, 2025).
# Test system: PDC 899932-113-R3-J6 complex spheroid viability
# Assay: Anticancer human tumor 899932-113-R3-J6-PDC patient-derived melanoma cell line growth inhibition [RAS]
# Details: for IC50: curve of first compound; for viability, T/C: stronger effect = lower value
# Description: RAS pathway inhibitors in Combinations in Complex Spheroids
# A high-throughput screen of multi-cell type tumor spheroids was designed to identify active combinations of RAS pathway inhibitors and targeted small molecules. Complex spheroids include a stromal component modeled by human endothelial cells (HUVEC) and fibroblasts modeled by human mesenchymal stem cells (MSCs). The concentration ranges selected for each drug and investigational agent were based upon clinically achievable concentrations if the clinical Cmax of the agent was known.
# Compounds. The drugs and investigational agents: abemaciclib (NSC768073), cobimetinib (NSC768068), divarasib (GDC6063, NSC841802), docetaxel (NSC628503), GDC-1971 (RLY-1971, NSC841576), gemcitabine (NSC613327), inavolisib (NSC800729), ipatasertib (NSC767898), KB-0742 (NSC834161), MRTX-1133 (NSC836407), osimertinib (NSC779217), RMC-4630 (NSC839698), RMC-6236 (NSC851965), RMC-6291 (NSC852671), Ro-3306 (NSC812927), sapanisertib (NSC764658), SN-38 (NSC673596), staurosporine (NSC755774), SY5609 (NSC837396), and tovorafenib (DAY101, NSC766906), were obtained from the National Cancer Institute (NCI) Developmental Therapeutics Program Chemical Repository. The FDA-approved anticancer drug set is available from the NCI Developmental Therapeutics Program. […] The stock solutions were prepared in dimethyl sulfoxide (DMSO, Sigma-Aldrich, St. Louis, MO, cat. D2650) at 800-fold the tested concentration and stored at -70 degrees C prior to their use. All drugs and investigational agents were tested over a range starting from a high concentration at or near the clinical Cmax and decreasing in half-log increments. If the clinical Cmax for an agent had not been determined, the highest concentration tested was 10 microM.
# Cell Culture. All cells were maintained in an incubator at 37 degrees C and 5% CO2 with 95% humidity. The PDC lines were cultured according to standard operating procedures established by the NCI PDMR. All PDCs were thawed and cultured in Matrigel-coated flasks prepared with a working solution of 1X Ham's F-12 nutrient mix, without supplementation (Invitrogen, Waltham, MA, cat. 11765054), 100 U/mL penicillin-streptomycin (Invitrogen, cat. 15140122), and 2.5% Matrigel (Corning Inc., Corning, NY, cat. 354248) for the first three passages. The 362531-283-R-J2-PDC and 782815-120-R-J1-PDC lines were cultured in 6C/Colon 1B media, which includes advanced DMEM/F-12 (Thermo Fisher Scientific, cat. 12634028), 10 mM HEPES (Thermo Fisher Scientific, cat. 15630080), 1X GlutaMAX supplement (Thermo Fisher Scientific, cat. 35050061), 0.1 mg/mL primocin (InvivoGen, San Diego, CA, cat. ant-pm-2), 10% defined fetal bovine serum, heat inactivated (HyClone Laboratories Inc., Logan, UT, cat. SH30070.03HI), 50% L-WRN conditioned media (ATCC, cat. CRL-3276), 1.25 mM N-Acetyl-L-cysteine (Sigma-Aldrich, cat. A9165), 10 mM nicotinamide (Sigma-Aldrich, cat. N0636), 1X B-27 supplement (Thermo Fisher Scientific, cat. 17504044), 1X N-2 supplement (Thermo Fisher Scientific, cat. 17502048), 50 ng/mL human EGF (Thermo Fisher Scientific, cat. PHG0311), and 10 microM Y-27632 dihydrochloride (Tocris Bioscience, cat. 1254). The K12877-001-R-J1-PDC line was cultured in 6I media, which includes all 6C/Colon 1B media plus 10 ng/mL human FGF-10 (PeproTech, cat. 100-26), 1 ng/mL human FGF-2 (PeproTech, cat. 100-18B), 1 µM prostaglandin E2 (Tocris Bioscience, cat. 2296), […] hydrocortisone (Sigma-Aldrich, cat. H4001), and […] bovine insulin (Sigma-Aldrich, cat. I6634). The K86415-001-R-J1-PDC line was cultured in 6D media, which includes all 6C/Colon 1B media components minus the L-WRN conditioned media. The 485176-168-R4-J1-PDC was cultured in PANC media, which includes all 6C/Colon 1B media plus 100 ng/mL human FGF-10 (PeproTech, cat. 100-26), 500 nM SB-431542 (Selleckchem, cat. S1067), and 10 nM gastrin (Tocris Bioscience, cat. 3006). […]
# 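Wherever viability, T/C is given: spheroids exposed to agents for seven days before readout; 100% = DMSO vehicle control wells.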
structure (smiles),measurement,setting,value
Cc1nc(N2CCC3(CC2)COC(C)C3N)c(CO)nc1Sc1ccnc(N)c1Cl (configuration not stated) + C=CC(=O)N1CCN(c2nc(OCC3CCCN3C)nc3c(F)c(-c4nc(N)cc(C)c4C(F)(F)F)c(Cl)cc23)C(C)C1,IC50,second compound 0.00316 µM,> 10 µM
same,IC50,second compound 0.01 µM,> 10 µM
same,IC50,second compound 0.0316 µM,> 10 µM
same,IC50,second compound 0.1 µM,> 10 µM
same,IC50,second compound 0.316 µM,> 10 µM
same,IC50,second compound 1 µM,> 10 µM
same,"viability, T/C","second compound 0.00316 µM, first compound 0.0316 µM",110%
same,"viability, T/C","second compound 0.00316 µM, first compound 0.1 µM",96.4%
same,"viability, T/C","second compound 0.00316 µM, first compound 0.316 µM",102%
same,"viability, T/C","second compound 0.00316 µM, first compound 1 µM",108%
same,"viability, T/C","second compound 0.00316 µM, first compound 3.16 µM",115%
same,"viability, T/C","second compound 0.00316 µM, first compound 10 µM",127%
same,"viability, T/C","second compound 0.01 µM, first compound 0.0316 µM",106%
same,"viability, T/C","second compound 0.01 µM, first compound 0.1 µM",109%
same,"viability, T/C","second compound 0.01 µM, first compound 0.316 µM",113%
same,"viability, T/C","second compound 0.01 µM, first compound 1 µM",107%
same,"viability, T/C","second compound 0.01 µM, first compound 3.16 µM",119%
same,"viability, T/C","second compound 0.01 µM, first compound 10 µM",118%
same,"viability, T/C","second compound 0.0316 µM, first compound 0.0316 µM",99.7%
same,"viability, T/C","second compound 0.0316 µM, first compound 0.1 µM",98.5%
same,"viability, T/C","second compound 0.0316 µM, first compound 0.316 µM",117%
same,"viability, T/C","second compound 0.0316 µM, first compound 1 µM",108%
same,"viability, T/C","second compound 0.0316 µM, first compound 3.16 µM",120%
same,"viability, T/C","second compound 0.0316 µM, first compound 10 µM",126%
same,"viability, T/C","second compound 0.1 µM, first compound 0.0316 µM",99.5%
same,"viability, T/C","second compound 0.1 µM, first compound 0.1 µM",108%
same,"viability, T/C","second compound 0.1 µM, first compound 0.316 µM",107%
same,"viability, T/C","second compound 0.1 µM, first compound 1 µM",113%
same,"viability, T/C","second compound 0.1 µM, first compound 3.16 µM",120%
same,"viability, T/C","second compound 0.1 µM, first compound 10 µM",124%
same,"viability, T/C","second compound 0.316 µM, first compound 0.0316 µM",126%
same,"viability, T/C","second compound 0.316 µM, first compound 0.1 µM",111%
same,"viability, T/C","second compound 0.316 µM, first compound 0.316 µM",108%
same,"viability, T/C","second compound 0.316 µM, first compound 1 µM",106%
same,"viability, T/C","second compound 0.316 µM, first compound 3.16 µM",108%
same,"viability, T/C","second compound 0.316 µM, first compound 10 µM",110%
same,"viability, T/C","second compound 1 µM, first compound 0.0316 µM",113%
same,"viability, T/C","second compound 1 µM, first compound 0.1 µM",106%
same,"viability, T/C","second compound 1 µM, first compound 0.316 µM",114%
same,"viability, T/C","second compound 1 µM, first compound 1 µM",116%
same,"viability, T/C","second compound 1 µM, first compound 3.16 µM",110%
same,"viability, T/C","second compound 1 µM, first compound 10 µM",114%
